Active and inactive are the calls of the source.

The source of these data is ChEMBL document CHEMBL1201862, “PubChem BioAssay data set” (2004).

The subject of one data set is P388/ADR. Put plainly: cells. It is filed as functional. The settings on record: Mus musculus.
The test system of a further data set is SN12K1. Put plainly: cells. It is filed as functional. As to conditions: Homo sapiens.
A further data set relates to P388. Put plainly: cells. Format: functional. As to conditions: Mus musculus.
The target of data set [1] is T1, Endoribonuclease toxin MazF (Escherichia coli K-12, UniProt P0AE70).
T1 sequence (P0AE70 whole entry): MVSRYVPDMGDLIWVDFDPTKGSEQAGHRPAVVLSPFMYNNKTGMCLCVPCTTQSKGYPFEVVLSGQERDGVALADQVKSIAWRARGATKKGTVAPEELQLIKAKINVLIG
Put plainly: MazF toxin RNase activators, dose response, biochemical, fluorescence, single-stranded RNA substrate, uHTS hits (AID 588481). It is filed as functional.

In data set [2] the target is T1, Endoribonuclease toxin MazF. Put plainly: fluorescent RNA oligo signal without MazF, dose response, counter-screen for MazEF activator project, biochemical, fluorescence, single-stranded RNase substrate (AID 588502). It is filed as functional.
Another data set has as its target Cytochrome P450 2C19 (Homo sapiens, UniProt P33261). Put plainly: Cytochrome panel assay with activity outcomes. Panel member name: p450-cyp2c19 Compounds with AC50 equal or less than 10 uM are considered active. It is filed as functional. The settings on record: read-out: AC50.
The target in the next data set is Cytochrome P450 3A4 (Homo sapiens, UniProt P08684).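 Further: CYP3A4 tested as one member of a cytochrome P450 panel screen.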
The target in data set [3] is T2, Probable nicotinate-nucleotide adenylyltransferase (Staphylococcus aureus (strain N315), UniProt P65502). It is filed as functional, Staphylococcus aureus subsp. aureus N315.
Data set [4] addresses T2, Probable nicotinate-nucleotide adenylyltransferase. It is filed as functional, Staphylococcus aureus subsp. aureus N315. As to conditions: read-out: IC50_Mean.
The target of the next data set is Beta-galactosidase (Escherichia coli, UniProt Q8VNN2). Put plainly: PubChem AID 485352. It is filed as functional.
Data set [5] has as its target T3, Type-1 angiotensin II receptor (Homo sapiens, UniProt P30556).
T3 sequence (P30556 whole entry): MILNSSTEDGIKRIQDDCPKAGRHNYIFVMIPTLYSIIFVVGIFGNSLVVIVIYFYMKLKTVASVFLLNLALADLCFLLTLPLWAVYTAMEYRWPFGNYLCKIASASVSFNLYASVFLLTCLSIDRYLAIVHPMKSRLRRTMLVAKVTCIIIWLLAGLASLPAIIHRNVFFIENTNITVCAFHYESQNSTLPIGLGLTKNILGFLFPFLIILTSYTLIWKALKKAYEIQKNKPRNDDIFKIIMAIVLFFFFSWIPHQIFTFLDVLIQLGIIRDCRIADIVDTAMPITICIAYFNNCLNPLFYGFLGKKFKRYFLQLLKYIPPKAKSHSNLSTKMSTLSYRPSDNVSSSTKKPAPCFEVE
Put plainly: AT1 receptor antagonists, dose response, selectivity assay for APJ receptor antagonist project, cell-based, uHTS hits (AID 463214).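 Further: antagonist potency against angiotensin II stimulated AT1 response.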 Format: functional.

The target of data set [6] is Heat shock protein HSP 90-alpha (Homo sapiens, UniProt P07900). Format: functional, organism-based.
In the next data set the test system is Vero. Put plainly: cells. It is filed as functional. As to conditions: Chlorocebus sabaeus.
Data set [7] in a line: Fluorescence-based cell-based high throughput dose response assay for inhibitors of the interaction of nucleotide-binding oligomerization domain containing 2 (NOD2) and the receptor-interacting serine-threonine kinase 2 (RIPK2). As to conditions: Homo sapiens. It is filed as functional.
The target of the next data set is Cytochrome P450 2C9 (Homo sapiens, UniProt P11712).
Another data set has as its target Cytochrome P450 2D6 (Homo sapiens, UniProt P10635).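 Further: CYP2D6 member of a cytochrome P450 panel assay.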
For the next data set, the target named is T4, Cytochrome P450 1A2 (Homo sapiens, UniProt P05177).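 Further: PubChem cytochrome P450 panel assay, CYP1A2 panel member.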
T4 sequence (P05177 whole entry): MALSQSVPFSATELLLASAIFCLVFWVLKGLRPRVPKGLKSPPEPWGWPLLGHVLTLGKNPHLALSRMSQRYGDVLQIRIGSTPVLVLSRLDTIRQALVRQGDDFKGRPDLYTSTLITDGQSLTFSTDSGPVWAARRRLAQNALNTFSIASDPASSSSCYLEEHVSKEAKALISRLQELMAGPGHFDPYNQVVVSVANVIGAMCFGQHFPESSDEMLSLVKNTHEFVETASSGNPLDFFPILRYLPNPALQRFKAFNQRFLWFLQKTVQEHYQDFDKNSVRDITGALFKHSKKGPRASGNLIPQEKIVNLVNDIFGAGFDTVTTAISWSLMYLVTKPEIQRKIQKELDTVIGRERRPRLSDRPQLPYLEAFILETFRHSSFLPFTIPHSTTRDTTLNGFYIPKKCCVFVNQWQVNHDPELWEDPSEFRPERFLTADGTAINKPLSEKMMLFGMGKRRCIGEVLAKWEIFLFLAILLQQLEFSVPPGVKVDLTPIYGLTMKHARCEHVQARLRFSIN
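Wherever IC50 Mean is given: confirmatory dose-response retesting of NadD inhibitor hits first found in an ultra-high-throughput screen.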

Sequence of Beta-galactosidase (Q8VNN2 whole entry): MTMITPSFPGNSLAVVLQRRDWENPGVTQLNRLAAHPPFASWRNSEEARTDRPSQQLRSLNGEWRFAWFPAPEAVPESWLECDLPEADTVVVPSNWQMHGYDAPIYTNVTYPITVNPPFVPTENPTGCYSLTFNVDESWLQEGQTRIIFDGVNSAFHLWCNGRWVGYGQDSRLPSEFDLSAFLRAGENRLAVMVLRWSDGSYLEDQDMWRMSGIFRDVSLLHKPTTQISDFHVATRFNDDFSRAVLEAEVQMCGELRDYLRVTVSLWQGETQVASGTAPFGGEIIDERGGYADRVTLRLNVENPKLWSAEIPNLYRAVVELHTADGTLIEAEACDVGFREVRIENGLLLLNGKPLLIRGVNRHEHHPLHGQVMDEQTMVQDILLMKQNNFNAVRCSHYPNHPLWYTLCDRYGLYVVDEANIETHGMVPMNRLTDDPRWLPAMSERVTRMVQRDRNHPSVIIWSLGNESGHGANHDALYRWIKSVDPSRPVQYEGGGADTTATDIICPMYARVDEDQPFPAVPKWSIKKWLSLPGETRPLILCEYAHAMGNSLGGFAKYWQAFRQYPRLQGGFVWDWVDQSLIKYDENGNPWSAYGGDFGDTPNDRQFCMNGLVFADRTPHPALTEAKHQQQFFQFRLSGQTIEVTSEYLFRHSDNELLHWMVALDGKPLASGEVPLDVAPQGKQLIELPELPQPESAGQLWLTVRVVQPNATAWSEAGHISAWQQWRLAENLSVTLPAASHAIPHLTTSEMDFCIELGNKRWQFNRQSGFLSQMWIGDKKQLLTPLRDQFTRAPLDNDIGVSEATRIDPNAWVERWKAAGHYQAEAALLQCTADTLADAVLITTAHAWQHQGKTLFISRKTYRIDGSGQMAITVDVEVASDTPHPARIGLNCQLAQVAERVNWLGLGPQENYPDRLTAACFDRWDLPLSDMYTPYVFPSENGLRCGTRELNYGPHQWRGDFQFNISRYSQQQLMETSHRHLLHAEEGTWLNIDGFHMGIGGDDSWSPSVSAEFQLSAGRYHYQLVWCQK
Sequence of Cytochrome P450 3A4 (P08684 whole entry): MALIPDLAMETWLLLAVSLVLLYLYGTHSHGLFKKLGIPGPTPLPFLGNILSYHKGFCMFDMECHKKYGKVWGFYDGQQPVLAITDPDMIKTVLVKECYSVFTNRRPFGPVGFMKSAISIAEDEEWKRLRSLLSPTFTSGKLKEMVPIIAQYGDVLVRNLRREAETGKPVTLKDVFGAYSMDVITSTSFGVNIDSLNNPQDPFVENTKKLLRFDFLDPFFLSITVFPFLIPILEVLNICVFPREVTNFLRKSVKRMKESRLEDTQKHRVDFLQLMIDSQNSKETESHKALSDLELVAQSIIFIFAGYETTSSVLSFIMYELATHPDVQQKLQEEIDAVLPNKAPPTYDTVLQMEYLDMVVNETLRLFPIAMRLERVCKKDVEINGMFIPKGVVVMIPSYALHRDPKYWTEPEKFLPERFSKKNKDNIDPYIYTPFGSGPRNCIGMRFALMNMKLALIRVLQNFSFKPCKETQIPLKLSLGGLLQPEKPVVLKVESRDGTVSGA
T2 sequence (P65502 whole entry): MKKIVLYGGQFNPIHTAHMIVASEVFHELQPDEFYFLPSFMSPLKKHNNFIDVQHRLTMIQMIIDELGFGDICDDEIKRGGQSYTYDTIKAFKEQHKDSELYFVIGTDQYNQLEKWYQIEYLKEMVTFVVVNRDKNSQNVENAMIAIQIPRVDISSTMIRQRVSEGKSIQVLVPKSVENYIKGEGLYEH
Sequence of Cytochrome P450 2C9 (P11712 whole entry): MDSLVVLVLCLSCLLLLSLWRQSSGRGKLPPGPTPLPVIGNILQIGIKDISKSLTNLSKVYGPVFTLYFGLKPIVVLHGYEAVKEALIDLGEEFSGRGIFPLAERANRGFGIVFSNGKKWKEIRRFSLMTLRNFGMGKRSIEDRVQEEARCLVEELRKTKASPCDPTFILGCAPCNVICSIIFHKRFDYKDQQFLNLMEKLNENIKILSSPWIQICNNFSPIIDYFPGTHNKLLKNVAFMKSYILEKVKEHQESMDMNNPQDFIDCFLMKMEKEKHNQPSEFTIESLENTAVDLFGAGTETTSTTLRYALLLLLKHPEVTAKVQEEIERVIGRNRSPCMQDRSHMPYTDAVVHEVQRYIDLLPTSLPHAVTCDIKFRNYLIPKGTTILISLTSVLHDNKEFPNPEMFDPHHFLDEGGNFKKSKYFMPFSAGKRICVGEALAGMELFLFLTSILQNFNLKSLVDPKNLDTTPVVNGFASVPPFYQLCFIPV
Sequence of Cytochrome P450 2D6 (P10635 whole entry): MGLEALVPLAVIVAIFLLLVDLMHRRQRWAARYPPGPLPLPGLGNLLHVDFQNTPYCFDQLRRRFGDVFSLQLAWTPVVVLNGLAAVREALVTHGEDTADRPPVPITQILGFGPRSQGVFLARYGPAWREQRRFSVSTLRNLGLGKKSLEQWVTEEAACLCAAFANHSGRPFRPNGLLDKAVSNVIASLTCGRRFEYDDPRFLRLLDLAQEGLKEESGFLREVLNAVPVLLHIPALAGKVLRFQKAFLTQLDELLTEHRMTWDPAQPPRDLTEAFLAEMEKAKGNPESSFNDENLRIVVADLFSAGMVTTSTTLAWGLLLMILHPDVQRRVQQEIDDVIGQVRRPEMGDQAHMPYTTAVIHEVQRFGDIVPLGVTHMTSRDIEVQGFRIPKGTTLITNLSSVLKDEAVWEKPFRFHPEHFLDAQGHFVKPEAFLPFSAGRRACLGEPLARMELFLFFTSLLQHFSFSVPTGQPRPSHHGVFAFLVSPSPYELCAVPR
Sequence of Cytochrome P450 2C19 (P33261 whole entry): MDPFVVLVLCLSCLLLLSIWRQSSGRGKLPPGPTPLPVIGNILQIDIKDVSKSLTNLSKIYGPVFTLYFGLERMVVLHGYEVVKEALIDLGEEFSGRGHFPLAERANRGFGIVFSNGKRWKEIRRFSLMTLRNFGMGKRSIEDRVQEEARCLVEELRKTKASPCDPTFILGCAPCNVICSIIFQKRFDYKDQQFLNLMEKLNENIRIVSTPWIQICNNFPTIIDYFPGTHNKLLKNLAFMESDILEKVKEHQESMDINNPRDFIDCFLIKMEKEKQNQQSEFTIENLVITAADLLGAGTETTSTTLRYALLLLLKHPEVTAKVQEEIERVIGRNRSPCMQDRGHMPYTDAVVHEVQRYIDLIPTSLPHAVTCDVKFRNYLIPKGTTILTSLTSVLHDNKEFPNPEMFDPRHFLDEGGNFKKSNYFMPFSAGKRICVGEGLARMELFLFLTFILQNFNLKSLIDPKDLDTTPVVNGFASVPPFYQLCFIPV

`O=C1CCCCN1`: the values for the GI50 with P388/ADR, in the data set with SN12K1 and in the data set with P388 were > 1120 µM (inactive), > 1120 µM (inactive) and 764 µM (inactive), respectively.

For the molecule `CCOc1ccc2c(c1)S/C(=C\c1cccs1)C(=O)N2`, the EC50 in [1] and in data set [2] was > 99 µM (inactive) throughout.

For `COC(=O)N1CCC2(CC1)CN(C(c1ccccc1)c1ccccc1)C2`, the AC50 at Cytochrome P450 2C19 is 39.8 µM (inconclusive); at Cytochrome P450 3A4, “inconclusive”.

As to `C/C=C\C=C\C(=O)Nc1cccc(C2=NOC3(C2)C[C@@H](C(N)=O)N(C(=O)C(c2ccccc2)c2ccccc2)C3)c1` (some centres not stated), the IC50 is 11.9 µM (active) in [3] and 22.8 µM (active) in data set [4].

On to `Cc1nn(CCC(=O)NNC(S)=NCC(C)C)c(C)c1Br`, for which the EC50 on Beta-galactosidase was 32.1 µM (active). The IC50 in data set [5] was 15.9 µM (active).

In the case of `COc1cc(/C=C/[N+](=O)[O-])ccc1OC(=O)c1cccnc1`, the EC50 at Beta-galactosidase was > 40 µM (inactive). The IC50 in data set [5] was 5.87 µM (active); in data set [7], 1.82 µM (active). For the same molecule, the AC50 in data set [6] is 4.36 µM (active). In addition, the CC50 in the data set on Vero was 17.5 µM (active).

As to `Cc1ccc(-c2cc(C#N)c(=O)n(Cc3c(Cl)cccc3Cl)c2)cc1`, the values for the EC50 in data set [1] and in [2] were > 99 µM (inactive) and 41.9 µM (inactive), respectively.

With `COc1ccc(NS(=O)(=O)c2ccc(NC(=S)NC(=O)/C=C/c3ccccc3)cc2)nn1`, the figures for the IC50 in data set [3] and in data set [4] were 6.28 µM (active) and 40.6 µM (active), respectively.

As to `C/C(NCCN1CCOCC1)=C1/C(=O)NC(=O)N(Cc2ccccc2)C1=O`, the half-maximal activity concentration (AC50) at Cytochrome P450 2C9 was 25.1 µM (inconclusive); at Cytochrome P450 3A4 it was “inconclusive”.

Turning to `N#Cc1cccc(NC(=O)N2CC3(CCN(C(=O)Oc4ccccc4)CC3)C2)c1`, the AC50 on Cytochrome P450 2D6 is 39.8 µM (inconclusive); on Cytochrome P450 1A2, 15.8 µM (inconclusive); at Cytochrome P450 2C9 it was 15.8 µM (inconclusive); at Cytochrome P450 3A4 it was “inconclusive”.

Take `COc1cc(NS(=O)(=O)c2ccc(NC(=S)NC(=O)C3CCCC3)cc2)nc(OC)n1`: the EC50 on Beta-galactosidase was > 40 µM (inactive). Moreover, the IC50 in data set [5] is > 40 µM (not active).

As to `O=NN1C(c2ccccc2)CNC(=O)CC1c1ccccc1` (configuration not stated), the GI50 in the data set on P388/ADR is 22.8 µM (inactive); with SN12K1, 39.2 µM (inactive); with P388 it was 21.8 µM (inactive).

As for `CC(=O)O[C@H]1C(=O)O[C@@H]2C[C@H]3C(C)=CC(=O)[C@@H](O)[C@]3(C)[C@H]3[C@@]4(O)OC[C@]32[C@@H]1[C@@H](C)[C@H]4O`, the GI50 in the data set with P388/ADR is 1.66 µM (inactive); in the data set on SN12K1 it was 0.0223 µM (active); with P388, 0.133 µM (active).

With `CS(=O)(=O)OCCCCOS(C)(=O)=O` [BUSULFAN], the values for the GI50 with P388/ADR, with SN12K1 and with P388 were 109 µM (inactive), 215 µM (inactive) and 117 µM (inactive), respectively.
